From ChEMBL document CHEMBL3046271, “Design and synthesis of 3-[3-(substituted phenyl)-4-piperidin-1-ylmethyl/-4-morpholin-4-ylmethyl-4,5-dihydro-isoxazol-5-yl]-1H-indoles as potent anti-inflammatory agents” (Med Chem Res, 2010)

Assays:
Rattus norvegicus [1] = test: Ulcerogenic activity in Rattus norvegicus Wistar (rat) stomach assessed as severity index at 210 mg/kg, po after 17 hr relative to control; assay type: toxicity, organism-based; design: dose 210 mg/kg, route oral; conditions: in vivo
Rattus norvegicus [2] = test: Antioxidant activity in Rattus norvegicus Wistar (rat) assessed as malondialdehyde content in gastric mucosa at 210 mg/kg, po after 17 hr by UV spectrophotometric analysis (reference value: 3.23 +/- 0.05 nmol); assay type: functional
Rattus norvegicus [3] = test: Anti-inflammatory activity in Rattus norvegicus Wistar (rat) assessed as inhibition of carrageenan-induced paw edema at 70 mg/kg, po administered 1 hr prior to carrageenan challenge measured after 4 hr by plethysmometric analysis relative to control; assay type: functional
Rattus norvegicus [4] = test: Anti-inflammatory activity in Rattus norvegicus Wistar (rat) assessed as inhibition of carrageenan-induced paw edema at 70 mg/kg, po administered 1 hr prior to carrageenan challenge measured after 3 hr by plethysmometric analysis relative to control; assay type: functional
Rattus norvegicus [5] = test: Ulcerogenic activity in Rattus norvegicus Wistar (rat) stomach assessed as severity index at 105 mg/kg, po after 17 hr relative to control; assay type: toxicity, organism-based; design: dose 105 mg/kg, route oral; conditions: in vivo
Rattus norvegicus [6] = test: Anti-inflammatory activity in Rattus norvegicus Wistar (rat) assessed as inhibition of carrageenan-induced paw edema at 35 mg/kg, po administered 1 hr prior to carrageenan challenge measured after 3 hr by plethysmometric analysis relative to control; assay type: functional
Rattus norvegicus [7] = test: Anti-inflammatory activity in Rattus norvegicus Wistar (rat) assessed as inhibition of carrageenan-induced paw edema at 35 mg/kg, po administered 1 hr prior to carrageenan challenge measured after 4 hr by plethysmometric analysis relative to control; assay type: functional
Rattus norvegicus [8] = test: Antioxidant activity in Rattus norvegicus Wistar (rat) assessed as malondialdehyde content in gastric mucosa at 105 mg/kg, po after 17 hr by UV spectrophotometric analysis (reference value: 3.23 +/- 0.05 nmol); assay type: functional

Clc1ccc(C2=NOC(c3c[nH]c4ccccc34)C2CN2CCCCC2)cc1 (stereo not given)
UI (Rattus norvegicus [1]): 0.583 | Activity (Rattus norvegicus [2]): 4.38 nmol | inhibition in vivo at 70 mg/kg (Rattus norvegicus [3]): 53.5% | inhibition in vivo at 70 mg/kg (Rattus norvegicus [4]): 45.1%

Cc1ccc(C2=NOC(c3c[nH]c4ccccc34)C2CN2CCCCC2)cc1 (stereo not given)
UI (Rattus norvegicus [1]): 0.5 | Activity (Rattus norvegicus [2]): 4.28 nmol | inhibition in vivo at 70 mg/kg (Rattus norvegicus [3]): 51.5% | inhibition in vivo at 70 mg/kg (Rattus norvegicus [4]): 41.2%

Cc1ccc(C2=NOC(c3c[nH]c4ccccc34)C2CN2CCOCC2)cc1 (stereo not given)
inhibition in vivo at 70 mg/kg (Rattus norvegicus [3]): 48.5% | inhibition in vivo at 70 mg/kg (Rattus norvegicus [4]): 38.2%

c1ccc(C2=NOC(c3c[nH]c4ccccc34)C2CN2CCOCC2)cc1 (stereo not given)
inhibition in vivo at 70 mg/kg (Rattus norvegicus [3]): 45.5% | inhibition in vivo at 70 mg/kg (Rattus norvegicus [4]): 35.3%

COc1ccc(C2=NOC(c3c[nH]c4ccccc34)C2CN2CCOCC2)cc1 (stereo not given)
UI (Rattus norvegicus [1]): 0.25 | Activity (Rattus norvegicus [2]): 4.16 nmol | inhibition in vivo at 70 mg/kg (Rattus norvegicus [3]): 55.5% | inhibition in vivo at 70 mg/kg (Rattus norvegicus [4]): 44.1%

COc1ccc(C2=NOC(c3c[nH]c4ccccc34)C2CN2CCCCC2)cc1 (stereo not given)
UI (Rattus norvegicus [1]): 0.75 | Activity (Rattus norvegicus [2]): 4.51 nmol | inhibition in vivo at 70 mg/kg (Rattus norvegicus [3]): 50.5% | inhibition in vivo at 70 mg/kg (Rattus norvegicus [4]): 45.1%

c1ccc(C2=NOC(c3c[nH]c4ccccc34)C2CN2CCCCC2)cc1 (stereo not given)
inhibition in vivo at 70 mg/kg (Rattus norvegicus [3]): 48.5% | inhibition in vivo at 70 mg/kg (Rattus norvegicus [4]): 34.3%

COc1ccc2c(c1)c(CC(=O)O)c(C)n2C(=O)c1ccc(Cl)cc1 [INDOMETHACIN]
UI (Rattus norvegicus [5]): 2.33 | inhibition in vivo at 35 mg/kg (Rattus norvegicus [6]): 65.2% | inhibition in vivo at 35 mg/kg (Rattus norvegicus [7]): 76.5% | Activity (Rattus norvegicus [8]): 9.29 nmol

Clc1ccc(C2=NOC(c3c[nH]c4ccccc34)C2CN2CCOCC2)cc1 (stereo not given)
UI (Rattus norvegicus [1]): 0.75 | Activity (Rattus norvegicus [2]): 4.39 nmol | inhibition in vivo at 70 mg/kg (Rattus norvegicus [3]): 50.5% | inhibition in vivo at 70 mg/kg (Rattus norvegicus [4]): 44.1%
